Results reported in PMC8070394, “Determination of Colistin in Contents Derived from Gastrointestinal Tract of Feeding Treated Piglet and Broiler” (Antibiotics, 2021).

Key:
[1] = Colistin in contents of swine gastrointestinal segments and feces after feeding treatment (UPLC-MS/MS); assay type: in vivo, piglets (Duroc × Landrace × Large white); conditions: n = 4
Description: (§1) Eight weaned piglets (Duroc × Landrace × Large white) 3~4 weeks of age were used in a 14-day feeding trial. First, all piglets were fed with the base diet (Table S1) for an adapting period of 6 days. Subsequently, four piglets fed the base diet were kept as untreated controls, and the other four piglets were fed the base diet, which was supplemented with colistin sulphate at 20 mg/kg of body weight for 14 consecutive days. Thereafter, feces were collected, and the piglets were slaughtered to obtain contents from the swine gastrointestinal segments, including stomach, duodenum, jejunum and cecum. The sixteen cobb broilers 1–3 days in age were selected and fed with a drug-free balanced diet (Table S2) during the 14-day adaption period and the subsequent treatment period. Then, eight broilers were kept as untreated controls, and the other eight broilers were fed with colistin at 20 mg/kg of body weight for 14 consecutive days. At the end of the trial, treated and untreated animals were sacrificed, and the contents derived from the gizzard, proventriculus, duodenum, jejunum, ileum and cecum were recovered. All samples were stored at −80 °C before being analyzed.
(§2) The extraction procedure was based on the methods developed by Fu with some modifications. Briefly, 2 g of samples was lyophilized to dryness and extracted twice with 10 mL of 10% trichloroacetic acid: acetonitrile (40:60, v/v), and the combined extraction solution was adjusted to pH 9.0. Thereafter, the extraction solution was applied to Oasis WCX SPE cartridges which were prewashed with 3 mL of methanol and 3 mL of water. The cartridges were then rinsed with 3 mL of water, 3 mL of methanol and 3 mL of 5% formic acid in water. Eventually, the colistin was eluted with 5 mL of 20% formic acid in methanol. The eluent was evaporated to dryness by vacuum centrifugation at 50 °C and resuspended in 500 μL of deionized water prior to measurement using an UPLC–MS/MS system.
(§3) Chromatography of colistin was conducted with an UltiMate 3000 UPLC system (Thermo Fisher, San Jose, CA, USA) equipped with an Acquity UPLC BEH C18 column (2.1 mm × 100 mm; 1.7 µm particle size; Waters, Milford, MA, USA). The mobile phase A was 0.2% formic acid, 5% acetonitrile in H2O; B was 100% acetonitrile. The colistin was resolved with a linear gradient starting from 95% A solvent to 70% B solvent over 5 min and then to 5% A at 10 min, at a flow rate of 200 µL/min.
(§4) MS spectra were acquired at positive ionization mode with a hybrid quadrupole-obitrap mass spectrometer (Q Exactive, Thermo Fisher, San Jose, CA, USA). The sheath gas flow rate was 25 mL/min; the auxiliary gas flow rate was 15 mL/min; the spray voltage was 3.2 kV; and the temperature of the capillary tube was set to 320 °C. One microscan was used for data acquisition. The resolution settings were full MS target 70,000 and MS/MS target 17,500; normalized CE 20% and 22% were employed for colistin A and colistin B, respectively. Data manipulations were employed using Xcalibur version 4.0 software. Quantitative analyses were conducted in the selective reaction monitoring (SRM) scan mode. The two most abundant fragment ions were selected from each analyte for analysis (Figure S1). The transitions monitored and approximate chromatographic retention times (tR) were as follows: colistin A ([M + 3H]^3+), m/z 390.60 > 101.0696, 241.1860, tR = 7.30 min; colistin B ([M + 3H]^3+), m/z 385.90 > 101.0696, 227.1710, tR = 6.85 min. The mass tolerance was set to 5 ppm for fragment ions.
(§5) Colistin-treated samples and controls were subject to analysis using the proposed method, including stomach, duodenum, jejunum and cecum content samples and feces samples recovered from 4 treated and 4 untreated piglets; gizzard, proventriculus, duodenum, jejunum, ileum and cecum content samples and feces samples from 8 treated and 8 control cobb broilers. […]

[2] = Colistin in contents of broiler gastrointestinal segments and feces after feeding treatment (UPLC-MS/MS); assay type: in vivo, cobb broilers; conditions: broilers fed colistin 20 mg/kg body weight for 14 days
Description: as §1, §2, §3, §4, §5

[3] = pigs, single oral administration, cited from earlier work
Excerpt: Nutrients and drugs are known to be mainly absorbed in the small intestine of animals and humans after oral administration. The dosing regimen of colistin in clinical use depends upon the pharmacokinetics and pharmacodynamics of colistin in humans. Meanwhile, the absorption of oral drugs in the digestive tract is crucial for the dosing regimen as well. Unlike for human medicine, a few studies have been conducted in animals to evaluate the pharmacokinetics and pharmacodynamics of colistin following oral administration. One study has measured colistin in the whole intestin ...

## Colistin
[1]; piglets fed colistin sulphate 20 mg/kg body weight for 14 days, cecum content, dried weight
  average amount of colistin in content recovered from the cecum, based on dried weight: ~ 3300 ng/g
[1]; piglets fed colistin sulphate 20 mg/kg body weight for 14 days, cecum content, wet weight, UPLC-MS/MS, mean ± standard deviation
  concentration of colistin in content from the cecum: 398.3 ± 161.2 ng/g
[1]; piglets fed colistin sulphate 20 mg/kg body weight for 14 days, duodenum content, UPLC-MS/MS
  average concentration of colistin in samples from the duodenum: ~ 30 ng/g
[1]; piglets fed colistin sulphate 20 mg/kg body weight for 14 days, feces, dried weight
  average amount of colistin in feces, based on dried weight: ~ 3300 ng/g
[1]; piglets fed colistin sulphate 20 mg/kg body weight for 14 days, jejunum content, UPLC-MS/MS
  average concentration of colistin in samples from the jejunum: ~ 30 ng/g
[1]; piglets fed colistin sulphate 20 mg/kg body weight in diet for 14 consecutive days, feces, wet weight, UPLC-MS/MS, mean
  average concentration of colistin in feces samples: approximately 1248.3 ng/g
[2]
  decrease of the amount of colistin from the cecum to feces: at least 5 fold
[2]; cecum content, dried weight, mean ± standard deviation, n = 8
  estimate of colistin in samples from the cecum, regardless of the moisture: 15766.0 ± 9249.2 ng/g
[2]; cecum content, wet weight, mean, n = 8
  average concentration of colistin, cecum: 4882.9 ng/g
[2]; duodenum content, wet weight, mean, n = 8
  average concentration of colistin, duodenum: 383.7 ng/g
[2]; feces, dried weight, mean ± standard deviation, n = 8
  estimate of colistin in samples from feces, regardless of the moisture: 823.4 ± 616.4 ng/g
[2]; feces, wet weight, mean, n = 8
  average concentration of colistin in feces samples: 147.7 ng/g
[2]; gizzard content, wet weight, mean, n = 8
  average concentration of colistin, gizzard: 1145.7 ng/g
[2]; ileum content, wet weight, mean, n = 8
  average concentration of colistin, ileum: 2056.1 ng/g
[2]; jejunum content, wet weight, mean, n = 8
  average concentration of colistin, jejunum: 1572.3 ng/g
[2]; proventriculus content, wet weight, mean, n = 8
  average concentration of colistin, proventriculus: 448.3 ng/g
[3]; HPLC-Fluorescence after derivatization
  peak concentration of colistin in samples from the duodenum to ileum, highest level: ~ 90,000 ng/g
[3]; after 4 h, HPLC-Fluorescence
  colistin in samples from duodenum to ileum after 4 h: no colistin was detected
